What was measured:
human CARM1 (PRMT4) = human CARM1 (PRMT4) (Homo sapiens (Human), UniProt Q86X55); assay: CARM1 enzyme assay on peptide substrate (3H-SAM Flashplate); conditions: Biochemical potencies, read-out: Biochem IC50
Excerpt: S-adenosylmethionine (SAM), S-adenosylhomocysteine (SAH), bicine, Tween20, dimethylsulfoxide (DMSO), bovine skin gelatin (BSG), sodium butyrate and Tris(2-carboxyethyl)phosphine hydrochloride solution (TCEP) were purchased from Sigma-Aldrich at the highest level of purity possible. ^3H-SAM was purchase from American Radiolabeled Chemicals with a specific activity of 80 Ci/mmol. 384-well streptavidin Flashplates were purchased from PerkinElmer.
Peptide representative of human histone H3 residues 16-30 was synthesized with an N-terminal linker-affinity tag motif and a C-terminal amide cap by 21st Century Biochemicals. […] The sequence was Biot-Ahx-[…]-amide and contained a monomethylated arginine at position 26 (SEQ ID NO.:1).
The gene sequence encoding isoform 1 containing a deletion of amino acids 539-561 was amplified subsequently and subcloned into pFastBacMam (Viva Biotech).
Recombinant baculovirus were generated according to Bac-to-Bac kit instructions (Life Technologies). Protein over-expression was accomplished by infecting exponentially growing HEK 293F cell culture at 1.3×10^6 cell/ml with virus (MOI=10) in the presence of 8 mM sodium butyrate. Infections were carried out at 37° C. for 48 hours, harvested by centrifugation, and stored at −80° C. for purification.
Expressed full-length human Flag- and His-tagged CARM1 protein was purified from cell paste by anti-flag M2 affinity chromatography with resin equilibrated with buffer containing 20 mM Tris, 150 mM NaC, 5% glycerol, pH 7.8. Column was washed with 500 mM NaCl in buffer A and Flag-CARM1-His was eluted with 200 ug/ml FLAG peptide in buffer A. Pooled fractions were dialyzed in 20 mM Tris, 150 mM NaCl, 5% glycerol and 1 mM DTT, pH 7.8.
The assays were all performed in a buffer consisting of 20 mM Bicine (pH=7.6), 1 mM TCEP, 0.005% BSG, and 0.002% Tween 20, prepared on the day of use. Compounds in 100% DMSO (1 ul) were spotted into a polypropylene 384-well V-bottom plates (Greiner) using a Platemate Plus outfitted with a 384-channel head (Thermo Scientific). DMSO (1 ul) was added to Columns 11, 12, 23, 24, rows A-H for the maximum signal control and 1 ul of SAH, a known product and inhibitor of CARM1, was added to columns 11, 12, 23, 24, rows I-P for the minimum signal control. A cocktail (40 ul) containing the CARM1 enzyme was added by Multidrop Combi (Thermo-Fisher). The compounds were allowed to incubate with CARM1 for 30 min at room temperature, then a cocktail (10 ul) containing ^3H-SAM and peptide was added to initiate the reaction (final volume=51 ul). The final concentrations of the components were as follows: CARM1 was 0.25 nM, ^3H-SAM was 30 nM, peptide was 250 nM, SAH in the minimum signal control wells was 1 mM, and the DMSO concentration was 2%. The assays were stopped by the addition of non-radiolabeled SAM (10 ul) to a final concentration of 300 uM, which dilutes the ^3H-SAM to a level where its incorporation into the peptide substrate is no longer detectable. 50 ul of the reaction in the 384-well polypropylene plate was then transferred to a 384-well Flashplate and the biotinylated peptides were allowed to bind to the streptavidin surface for at least 1 hour before being washed once with 0.1% Tween20 in a Biotek ELx405 plate washer. The plates were then read in a PerkinElmer TopCount plate reader to measure the quantity of ^3H-labeled peptide bound to the Flashplate surface, measured as disintegrations per minute (dpm) or alternatively, referred to as counts per minute (cpm).
The Hill Coefficient normally allowed to float but may also be fixed at 1 in a 3-parameter fit.

[1] = test system: asymmetric di-methyl PABP1 in RKO cells; assay: RKO methylation assay, In Cell Western (ICW) for asymmetric di-methyl PABP1; assay type: cell-based; conditions: Homo sapiens, RKO, Cellular potencies, ICW PABP1me2a
Summary of the method: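 RKO cells treated with compound for 48 h at 37 °C, then fixed, permeabilized and immunostained for asymmetric di-methyl PABP1, with DRAQ5 as DNA stain. Infrared 700/800 nm signal ratio normalized to DMSO and 20 μM reference-compound controls; IC50 from triplicate wells.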

Chain of human CARM1 (PRMT4) (Q86X55 other isoform, or with tags, fused parts or gaps isoform Q86X55-1): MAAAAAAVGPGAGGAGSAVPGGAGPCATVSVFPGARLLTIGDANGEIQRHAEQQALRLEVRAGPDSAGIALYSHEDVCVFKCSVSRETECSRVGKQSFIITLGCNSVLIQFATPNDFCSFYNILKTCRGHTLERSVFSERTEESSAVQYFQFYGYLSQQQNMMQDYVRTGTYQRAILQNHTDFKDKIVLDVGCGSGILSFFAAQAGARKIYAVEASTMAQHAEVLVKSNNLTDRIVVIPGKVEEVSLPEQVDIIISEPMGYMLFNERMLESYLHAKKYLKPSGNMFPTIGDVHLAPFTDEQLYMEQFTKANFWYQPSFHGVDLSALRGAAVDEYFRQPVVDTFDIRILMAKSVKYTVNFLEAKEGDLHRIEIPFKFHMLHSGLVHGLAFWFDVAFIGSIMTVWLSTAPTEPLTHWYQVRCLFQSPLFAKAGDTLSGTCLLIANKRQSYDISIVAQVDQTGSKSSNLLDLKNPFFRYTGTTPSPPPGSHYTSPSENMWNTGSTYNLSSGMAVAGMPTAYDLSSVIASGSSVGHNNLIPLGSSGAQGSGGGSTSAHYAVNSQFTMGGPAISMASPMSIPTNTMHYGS

Compound | IC50 (human CARM1 (PRMT4)) [µM] | IC50 [1] [µM]
CNCC(O)COc1cccc(-c2nc(N[C@@H]3CCOC3)c(C)c(-c3ccnn3C)n2)c1 (stereo partly shown) [Example 337-1a] | 0.1 to 1 | 5 to 10
CNCC(O)COc1cccc(-c2nc(N[C@@H]3CCOC3)c(C)c(C(=O)NCC3CCOCC3)n2)c1 (stereo partly shown) [Example 346-1a] | 0.1 to 1 | 10 to 20
CNCC(O)COc1cccc(-c2nc(N[C@H]3CCOC3)c(C)c(C3CCOCC3)n2)c1 (stereo partly shown) [Example 347-1a] | 0.1 to 1 | 10 to 20
CNCC(O)COc1cccc(-c2nc(N[C@@H]3CCOC3)c(C)c(-c3cccnc3F)n2)c1 (stereo partly shown) [Example 348-1a] | 0.1 to 1 | 10 to 20
CNCC(O)COc1cccc(-c2nc(N[C@@H]3CCOC3)c(C)c(-c3cc[nH]n3)n2)c1 (stereo partly shown) [Example 349-1a] | 0.1 to 1 | 10 to 20
CNCC(O)COc1cc(Cl)cc(-c2nc(N[C@@H]3CCOC3)c(C)c(C(=O)N(C)CC3CCOCC3)n2)c1 (stereo partly shown) [Example 353-1a] | 0.1 to 1 | 10 to 20
CNCC(O)COc1cccc(-c2nc(N[C@@H]3CCOC3)c(C)c(-c3c(C)nn(C)c3C)n2)c1 (stereo partly shown) [Example 354-1a] | 0.1 to 1 | 10 to 20
CNCC(O)COc1cccc(-c2nc(N[C@@H]3CCOC3)c(C)c(-c3cnc(=O)[nH]c3)n2)c1 (stereo partly shown) [Example 357-1a] | 0.1 to 1 | 10 to 20
CNCC(O)COc1cccc(-c2nc(N3CCOCC3)cc(N(C3CC3)[C@@H]3CCOC3)n2)c1 (stereo partly shown) [Example 360-1a] | 0.1 to 1 | 10 to 20
CNCC(O)COc1cccc(-c2nc(N[C@@H]3CCOC3)c(C)c(N3CCC(O)CC3)n2)c1 (stereo partly shown) [Example 361-1a] | 0.1 to 1 | 10 to 20
CNCC(O)COc1cccc(-c2nc(N[C@@H]3CCOC3)c(C)c(C(=O)N(C)CC3CCOCC3)n2)c1 (stereo partly shown) [Example 364-1a] | 0.1 to 1 | 10 to 20
CNCC(O)COc1cccc(-c2nc(N[C@@H]3CCOC3)c(C)c(N3CCn4c(nnc4C(F)(F)F)C3)n2)c1 (stereo partly shown) [Example 365-1a] | 0.1 to 1 | 10 to 20
CNCC(O)COc1cccc(-c2nc(N[C@@H]3CCOC3)c(C)c(-c3ccc[nH]c3=O)n2)c1 (stereo partly shown) [Example 371-1a] | 1 to 3 | 10 to 20
CNCC(O)COc1cccc(-c2nc(NC3CCOCC3)cc(N(C3CC3)[C@@H]3CCOC3)n2)c1 (stereo partly shown) [Example 372-1a] | 1 to 3 | 10 to 20
CNCC(O)COc1cccc(-c2nc(N[C@H]3CO[C@H]4OCC[C@H]43)cc(N3CCOCC3)n2)c1 (stereo partly shown) [Example 373-1a] | 0.1 to 1 | 10 to 20
CNCC(O)COc1cccc(-c2nc(N[C@H]3CO[C@H]4OCC[C@H]43)c(C)c(N3CCOCC3)n2)c1 (stereo partly shown) [Example 374-1a] | 0.1 to 1 | 10 to 20
CCN(c1nc(-c2cccc(OCC(O)CNC)c2)nc(N2CCOCC2)c1C)[C@@H]1CCOC1 (stereo partly shown) [Example 375-1a] | 1 to 3 | 10 to 20
CNCC(O)COc1cccc(-c2nc(N[C@@H]3CCOC3)c(C)c(N3CCNC(=O)C3)n2)c1 (stereo partly shown) [Example 380-1a] | 0.1 to 1 | 10 to 20
CNCC(O)COc1cccc(-c2nc(NC3CCOC3)c(C)c(C(=O)NC3CCOCC3)n2)c1 (stereo not shown) [Example 383-1a] | 1 to 3 | 10 to 20
CNCC(O)COc1cccc(-c2nc(NC3CCOC3)c(C)c(C(=O)NC)n2)c1 (stereo not shown) [Example 384-1a] | 0.1 to 1 | 10 to 20
CNCC(O)COc1cccc(-c2nc(N[C@@H]3CCOC3)c(C)c(N3CCC(C)(O)CC3)n2)c1 (stereo partly shown) [Example 385-1a] | 0.1 to 1 | 10 to 20
CNCC(O)COc1cccc(-c2nc(N[C@@H]3CCOC3)c(C)c(N3CCC(OCCOC)CC3)n2)c1 (stereo partly shown) [Example 386-1a] | 3 to 10 | 10 to 20

Compound | IC50 (human CARM1 (PRMT4)) [µM] | IC50 [1] [µM]
CNCC(O)COc1cccc(-c2nc(N[C@@H]3CCOC3)cc(N3CCOCC3)n2)c1 (stereo partly shown) [Example 387-1a] | 0.1 to 1 | 10 to 20
CNCC(O)COc1cccc(-c2nc(N[C@@H]3CCOC3)c(C)c(-c3ccnc(NC)c3)n2)c1 (stereo partly shown) [Example 388-1a] | 0.1 to 1 | 10 to 20
CNCC(O)COc1cccc(-c2nc(N[C@@H]3CCOC3)c(C)c(-c3ccnc(N(C)C)c3)n2)c1 (stereo partly shown) [Example 389-1a] | 0.1 to 1 | 10 to 20
CNCC(O)COc1cccc(-c2nc(N[C@@H]3CCOC3)c(C)c(N(C)Cc3ccccn3)n2)c1 (stereo partly shown) [Example 393-1a] | 0.1 to 1 | 10 to 20
CNCC(O)COc1cccc(-c2nc(N[C@@H]3CCOC3)c(C)c(N3CCC[C@H]3COC)n2)c1 (stereo partly shown) [Example 395-1a] | 0.1 to 1 | 10 to 20
CNCC(O)COc1cccc(-c2nc(NC3CCOC3)c(C)c(N3CCC(O)(CCO)CC3)n2)c1 (stereo not shown) [Example 399-1a] | 0.1 to 1 | 10 to 20
CNCC(O)COc1cccc(-c2nc(NC3CCOC3)c(C)c(N3CCC4(CCO4)CC3)n2)c1 (stereo not shown) [Example 400-1a] | 0.1 to 1 | 5 to 10
CNCC(O)COc1cccc(-c2nc(NC3CCOC3)c(C)c(N3CCCC4(CCOCC4)C3)n2)c1 (stereo not shown) [Example 401-1a] | 0.1 to 1 | 10 to 20
CNCC(O)COc1cccc(-c2nc(NC3CCOC3)c(C)c(C(=O)N(C)C3CCOCC3)n2)c1 (stereo not shown) [Example 402-1a] | 3 to 10 | 10 to 20
CNCC(O)COc1cccc(-c2nc(N[C@@H]3CCOC3)c(C)c(C(=O)N3CCOCC3)n2)c1 (stereo partly shown) [Example 403-1a] | 3 to 10 | 10 to 20
CCc1c(N[C@@H]2CCOC2)nc(-c2cccc(OCC(O)CNC)c2)nc1N1CCOCC1 (stereo partly shown) [Example 404-1a] | 0.1 to 1 | 10 to 20
CNCC(O)COc1cccc(-c2nc(N[C@@H]3CCOC3)c(C)c(-c3ccnc(-n4ccnc4)c3)n2)c1 (stereo partly shown) [Example 405-1a] | 0.1 to 1 | 10 to 20
CNCC(O)COc1cccc(-c2nc(N[C@@H]3CCOC3)c(C)c(-c3ccnc(OCCOC)c3)n2)c1 (stereo partly shown) [Example 406-1a] | 0.1 to 1 | 5 to 10
CNCC(O)COc1cccc(-c2nc(N[C@@H]3CCOC3)c(C)c(-c3ccnc(N4CCC4)c3)n2)c1 (stereo partly shown) [Example 407-1a] | 0.1 to 1 | 10 to 20
CNCC(O)COc1cccc(-c2nc(N[C@@H]3CCOC3)c(C)c(-c3ccc(=O)[nH]c3)n2)c1 (stereo partly shown) [Example 409-1a] | 0.1 to 1 | 10 to 20
CNCC(O)COc1cccc(-c2nc(N3CCN(C(C)=O)[C@@H](C)C3)c(C)c(N(C)[C@@H]3CCOC3)n2)c1 (stereo partly shown) [Example 410-1a] | 0.1 to 1 | 5 to 10
CNCC(O)COc1cccc(-c2nc(N[C@@H]3CCOC3)c(C3CC3)c(N3CCOCC3)n2)c1 (stereo partly shown) [Example 413-1a] | 0.1 to 1 | 10 to 20
CNCC(O)COc1cccc(-c2nc(N[C@@H]3CCOC3)c(C)c(-c3cnn(CC(F)(F)F)c3)n2)c1 (stereo partly shown) [Example 414-1a] | 0.1 to 1 | 10 to 20
CNCC(O)COc1cccc(-c2nc(N[C@@H]3CCOC3)c(C)c(-c3cccnc3N)n2)c1 (stereo partly shown) [Example 416-1a] | 3 to 10 | 10 to 20
CNCC(O)COc1cccc(-c2nc(N[C@@H]3CCOC3)c(C)c(N3CCn4cnnc4C3)n2)c1 (stereo partly shown) [Example 418-1a] | 0.1 to 1 | 10 to 20
CNCC(O)COc1cccc(-c2nc(NC3CCOC3)c(C)c(N3CCNC(C(F)(F)F)C3)n2)c1 (stereo not shown) [Example 419-1a] | 0.1 to 1 | 10 to 20
CNCC(O)COc1cccc(-c2nc(NC3CCOC3)c(C)c(N3CCC4(CCCO4)CC3)n2)c1 (stereo not shown) [Example 420-1a] | 0.1 to 1 | 5 to 10

— patent US10633389B2, “CARM1 inhibitors and uses thereof” (Epizyme, Inc., priority 2013, dated 2020)
